Consider eleven molecules from article PMC9025269, “Synthesis and Anti-Hepatitis B Activities of 3′-Fluoro-2′-Substituted Apionucleosides” (Molecules, 2022).

Data set [1] deals with HBV. As to conditions: racemic compounds; read-out: EC50 HBV in vitro; cited from earlier work.
Data set [2] deals with HBV. The data set is described as follows: HBV replication assay with HepG2.117 cells (qPCR of HBV DNA in supernatant). It counts as cell-based, Hepatitis B virus. As to conditions: for EC50: Hepatitis B virus, HepG2.117 cells, 96 h, mean ± SD (n); for anti-HBV activity: cell-based assay. For orientation: Quantitative PCR measures a nucleic acid by following its amplification.

Data set [3] deals with VSV-G pseudotyped HIV NL4-3. Nature of the data set: microbe, parasite or virus in culture. It is filed as cell-based. As to conditions: for EC50: Human immunodeficiency virus 1, NL43, CCRF-CEM, 72 h, read-out: HIV EC50.
Data set [4] can be described thus: Cell cytotoxicity against HepG2 cells (CellTiter-Glo, 96 h). It is filed as cell-based, human. As to conditions: human. How it is done: (§1) In parallel, cell cytotoxicity (CC50) against HepG2 cells was measured using a luminescent cell viability assay to determine the number of viable cells in the culture based on quantitation of the adenosine triphosphate (ATP) present after a 4-day incubation period. On the first day, HepG2 cells were seeded at 15,000 cells per 100 µL per well with assay media containing DEME (Corning, cat#10-013-CV), 3% FBS (Coning, cat#35-011-CV), 1× penicillin/streptomycin and 1× Non-essential Amino Acid in Biocoat collagen-coated 96-well flat bottom plates. Cells were incubated in a 37 °C, 5% CO2 incubator for 4 h before compound dosing. The compound dilution and dosing procedure were identical to that for the determination of anti-HBV activity. After 96 h incubation, CellTiter-Glo® reagent (Promega, Madison, WI, USA) was added to each well and incubated for 10 min at RT. Luminescence was measured on a Victor X3 multi-label plate reader. Cell viability is normalized to the level observed in the absence of an inhibitor, which was defined as 100%.

Data set [5] can be described thus: in vitro. As to conditions: human.
The target of data set [6] is T1, HBV polymerase (Hepatitis B virus genotype D subtype ayw, UniProt P03156).
T1 construct: Recombinant HBV polymerase (Hepatitis B virus genotype D subtype ayw, full length); made in house; host or cells: Sf9 insect cells (baculovirus)
T1 sequence (P03156 whole entry): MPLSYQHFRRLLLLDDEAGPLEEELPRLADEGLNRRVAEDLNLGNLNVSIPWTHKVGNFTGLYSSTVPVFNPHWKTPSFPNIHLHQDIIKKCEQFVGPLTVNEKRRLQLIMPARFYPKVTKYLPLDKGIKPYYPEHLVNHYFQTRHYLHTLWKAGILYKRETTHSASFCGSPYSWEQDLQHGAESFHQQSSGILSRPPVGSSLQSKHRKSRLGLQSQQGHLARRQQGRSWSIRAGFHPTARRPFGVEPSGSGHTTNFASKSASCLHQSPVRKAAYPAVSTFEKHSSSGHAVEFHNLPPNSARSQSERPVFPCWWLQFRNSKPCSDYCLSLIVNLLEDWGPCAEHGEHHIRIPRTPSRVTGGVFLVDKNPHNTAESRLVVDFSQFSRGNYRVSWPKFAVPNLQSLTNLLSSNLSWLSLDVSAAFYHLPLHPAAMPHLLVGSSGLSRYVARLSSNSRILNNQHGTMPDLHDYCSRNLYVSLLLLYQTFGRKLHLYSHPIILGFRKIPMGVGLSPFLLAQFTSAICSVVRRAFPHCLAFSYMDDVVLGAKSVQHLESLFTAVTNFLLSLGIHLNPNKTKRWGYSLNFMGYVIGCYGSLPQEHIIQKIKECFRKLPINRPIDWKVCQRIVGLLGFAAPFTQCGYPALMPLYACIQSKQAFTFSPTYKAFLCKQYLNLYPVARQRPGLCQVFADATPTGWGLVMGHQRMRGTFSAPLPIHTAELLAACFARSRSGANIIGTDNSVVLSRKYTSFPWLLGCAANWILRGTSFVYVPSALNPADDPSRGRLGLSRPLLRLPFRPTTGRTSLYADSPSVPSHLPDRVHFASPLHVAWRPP
Nature of the data set: HBV polymerase RdDp activity assay. As to conditions: read-out: HBV pol IC50. It counts as biochemical. From the text:
(§2) HIV-1 reverse transcriptase (HIV-1 RT) was purchased from Abcam (cat#ab63979). Recombinant HBV polymerase (Hepatitis B virus genotype D subtype ayw, full length) was cloned using the baculovirus system, expressed in sf9 cells, and purified with similar strategy and methods described by Lanford et al.. A DNA primer (5′-[…]-3′) was synthesized by IDTDNA and a 358-nt RNA template was synthesized in-house using Megascript T7 transcription kit (ThermoFisher, cat#AM1334). dNTPs were purchased from Thermo Fisher and ^3H-dTTP from Perkin Elmer. Filter plates were purchased from Millipore (cat#MABN0V050) and microscint-20 was purchased from Perkin Elmer (cat#6013621).
The RdDp activity of HBV polymerase was measured similarly as described for the HIV-1 RT. To test compound inhibition effect, the reactions were performed at 30 °C for 120 min in a reaction mixture containing reaction buffer (50 mM Tris-Cl, pH 7.5, 100 mM KCl, 12.5 mM MgCl2, 4 mM DTT), 15 µg/mL polymerase, 0.5 µM DNA primer, 0.05 µM RNA template, 10% DMSO, 0.046 µM dATP, 0.057 µM dGTP, 0.017 µM dCTP, 0.32 µM ^3H-dTTP, and compounds at various concentrations.
All data were analyzed with GraphPad Prism. […]

For data set [7], the target named is T2, HIV-1 reverse transcriptase (HIV-1 RT) (Human immunodeficiency virus type 1 group M subtype B, UniProt P03366).
T2 construct: HIV-1 reverse transcriptase (HIV-1 RT) was purchased from Abcam (cat#ab63979); purchased Abcam ab63979
Nature of the data set: HIV-1 reverse transcriptase RdDp activity assay. It is filed as biochemical.
Excerpt: as §2
The RNA-dependent DNA polymerization (RdDp) activity of HIV-1 RT was measured by the incorporation of radioactively labeled nucleotides by HIV-1 RT into acid-insoluble DNA products from the DNA primer primed RNA template. To test compound inhibition, the reactions were performed at 30 °C for 40 min in a reaction mixture containing reaction buffer (50 mM Tris-Cl, pH 7.5, 100 mM KCl, 12.5 mM MgCl2, 4 mM DTT), 1 nM HIV-1 RT, 0.1 µM DNA primer, 0.02 µM RNA template, 10% DMSO, 0.1 µM dATP, 1 µM dGTP, 0.1 µM dCTP, 0.32 µM ^3H-dTTP, and compounds at various concentrations. The 50 µL reactions were performed in 96-well plates. The reactions were quenched with a 60 µL cold mixture of 20% (w/v) TCA and 0.5 mM ATP and incubated at 4 °C for 1 h. The reactions were loaded onto 96-well filter plates. The filters on plates were washed three times with 10% TCA and once with 70% ethanol on a Millipore plate wash station with vacuum applied. The filters on the plate were air-dried and 40 μL Microscint-20 was added to each well. The acid-precipitated tritiated DNA products retained on the filters were detected by a Trilux MicroBeta scintillation reader (Perkin Elmer).
All data were analyzed with GraphPad Prism. The compound concentration at which the enzyme-catalyzed rate was reduced by 50% (IC50) was calculated by fitting the data to the equation Y = % Min + (% Max − % Min) / (1 + 10^((logIC50-X)*h)), where Y corresponds to the percent inhibition to the enzyme activity, % Min is the residual inhibition activity without compound, % Max is the maximum inhibition of enzyme activity at saturating compound concentration, and X corresponds to the log of compound concentrations, and h is the hillslope.

Data set [8] has as its system HepG2 cells. The data set is described as follows: Cell cytotoxicity against HepG2 cells (CellTiter-Glo, 96 h). It is filed as cell-based, human. As to conditions: at highest tested concentrations; HepG2 and CEM cells (Table 1). How it is done: as §1
For orientation: Cellular ATP, detected with luciferase, serves as a proxy for viable cell number.

Where [9] appears, read: HepG2 cells, 96 h, read-out: HBV CC50.

Read-outs that look alike come from different tables or passages of the source.

With `Nc1ccn([C@H]2C[C@@](F)(CO)CO2)c(=O)n1` (relative stereo) [Compound 2c], in data set [1], the EC50 is 11 nM.
As for `Nc1nc(=O)n([C@H]2C[C@@](F)(CO)CO2)cc1F` (relative stereo) [Compound 2d], the EC50 in data set [1] is 800 nM.
On to `O=c1[nH]c(=O)n([C@H]2C[C@](F)(CO)CO2)cc1I` (relative stereo) [Compound 3b], for which the EC50 in data set [1] is 800 nM.
Consider `C=C1[C@H](CO)[C@@H](O)C[C@@H]1n1cnc2c(=O)[nH]c(N)nc21` [Compound 1, entecavir, reference compound], for which the EC50 in data set [2] came to 3 ± 2.4 nM; in data set [3] it was 1240 nM. Besides, the CC50 at 96 h in data set [4] was greater than 100000 nM.
Consider `C=C1[C@H](COP(=O)(N[C@@H](C)C(=O)OC(C)C)Oc2ccccc2)[C@@H](O)C[C@@H]1n1cnc2c(=O)[nH]c(N)nc21` (some centres unmarked) [Compound 1-PD, reference compound], for which the results for the 50% effective concentration (EC50) in data set [2] and in data set [3] were 31 ± 20 nM and greater than 20000 nM, respectively. For the same molecule, the CC50 at 96 h in data set [4] (setting [9]) was greater than 10000 nM. The CC50 in data set [5] is greater than 20000 nM.
Take `C=C1[C@H](COP(=O)(O)OP(=O)(O)OP(=O)(O)O)[C@@H](O)C[C@@H]1n1cnc2c(=O)[nH]c(N)nc21` [Compound 1-TP, reference compound]: the IC50 in data set [6] came out at 14 ± 3 nM; in data set [7], 320 nM.
With `Nc1ncnc2c1ncn2[C@@H]1OC[C@](F)(CO)[C@H]1O` [Compound 4, (2R,3S,4R)-2-(6-Amino-9H-purin-9-yl)-4-fluoro-4-(hydroxymethyl)tetrahydrofuran-3-ol], the concentration for a half-maximal effect (EC50) was greater than 100000 nM in data set [2] and greater than 33000 nM in data set [3]. In data set [2], the “anti-HBV activity” value was “Neither 4 nor its prodrug 24 showed any anti-HBV activity”. For the same molecule, the “cytotoxicity” value in data set [8] was “None of the tested apionucleosides 4 and 5 or apionucleoside prodrugs 24 and 39 showed any cytotoxicity”. Besides, the CC50 at 96 h in data set [4] is greater than 100000 nM. The molecule further had a CC50 in data set [5] greater than 33000 nM.
In the case of `Nc1ncnc2c1ncn2[C@@H]1OC[C@](F)(CO)[C@H]1CO` [Compound 5, ((2R,3S,4R)-2-(6-Amino-9H-purin-9-yl)-4-fluorotetrahydrofuran-3,4-diyl)dimethanol], in data set [2], the EC50 is greater than 10000 nM and the “anti-HBV activity” value was “did not show any anti-HBV activity”. In addition, the EC50 in data set [3] was greater than 33000 nM. The “cytotoxicity” value in data set [8] is “None of the tested apionucleosides 4 and 5 or apionucleoside prodrugs 24 and 39 showed any cytotoxicity”. Further, the CC50 at 96 h in data set [4] was greater than 10000 nM. For the same molecule, in data set [5], the CC50 is greater than 33000 nM.
Turning to `Nc1ncnc2c1ncn2[C@@H]1OC[C@](F)(COP(=O)(O)OP(=O)(O)OP(=O)(O)O)[C@H]1O` [Compound 23, ((3S,4S,5R)-5-(6-Amino-9H-purin-9-yl)-3-fluoro-4-hydroxytetrahydrofuran-3-yl)methyl triphosphate], 4200 nM corresponded to half-maximal inhibition in data set [7] (IC50).
Consider `CC(C)OC(=O)[C@H](C)NP(=O)(OC[C@@]1(F)CO[C@@H](n2cnc3c(N)ncnc32)[C@@H]1O)Oc1ccccc1` (stereo partly drawn) [Compound 24, Isopropyl ((((3S,4S,5R)-5-(6-amino-9H-purin-9-yl)-3-fluoro-4-hydroxytetrahydrofuran-3-yl)methoxy)(phenoxy)phosphoryl)-L-alaninate], for which, in data set [2], the EC50 was greater than 10000 nM and the “anti-HBV activity” value is “Neither 4 nor its prodrug 24 showed any anti-HBV activity”. Besides, the EC50 in data set [3] was greater than 33000 nM. Also, the “cytotoxicity” value in data set [8] was “None of the tested apionucleosides 4 and 5 or apionucleoside prodrugs 24 and 39 showed any cytotoxicity”. Besides, the CC50 at 96 h in data set [4] (setting [9]) was greater than 10000 nM. In data set [5], this molecule gave a CC50 greater than 33000 nM.
Turning to `CC(C)OC(=O)[C@H](C)NP(=O)(OC[C@@]1(F)CO[C@@H](n2cnc3c(N)ncnc32)[C@@H]1CO)Oc1ccccc1` (stereo partly drawn) [Compound 39, Isopropyl ((((3S,4S,5R)-5-(6-amino-9H-purin-9-yl)-3-fluoro-4-(hydroxymethyl)tetrahydro-furan-3-yl)methoxy)(phenoxy)phosphoryl)-L-alaninate], in data set [2], a half-maximal effect (EC50) was put at 7.8 ± 3.5 nM and the “anti-HBV activity” value was “strong inhibition of HBV”. In data set [3], the “anti-HIV activity” value was “showed anti-HIV activity” and the half-maximal effective concentration (EC50) was 300 nM. The “cytotoxicity” value in data set [8] is “None of the tested apionucleosides 4 and 5 or apionucleoside prodrugs 24 and 39 showed any cytotoxicity”. In addition, the CC50 at 96 h in data set [4] (setting [9]) was greater than 10000 nM. Besides, in data set [5], the CC50 is greater than 33000 nM.

What is called EC50 is the midpoint of the concentration-response curve. For orientation: IC50 means the concentration that inhibits the measured activity by half.
